In patent US20220411421A1, “4-AMINO-IMIDAZOQUINOLINE COMPOUNDS AND USE THEREOF” (Prime Reach Trading Limited, priority 2019, published 2022):

What was measured:
Format in all cases: cell-based
hTLR7 = target: T1, hTLR7 (Homo sapiens, UniProt Q9NYK1); experiment: hTLR7 agonistic activity, HEK-Blue hTLR7 SEAP reporter gene assay; details: for EC50: HEK-Blue hTLR7 cells, SEAP reporter, about 16 hours incubation, read-out: TLR7 EC50
T1 construct: expressed in transfected cells; host or cells: HEK-Blue hTLR7 cells
T1 sequence (Q9NYK1 27-1049): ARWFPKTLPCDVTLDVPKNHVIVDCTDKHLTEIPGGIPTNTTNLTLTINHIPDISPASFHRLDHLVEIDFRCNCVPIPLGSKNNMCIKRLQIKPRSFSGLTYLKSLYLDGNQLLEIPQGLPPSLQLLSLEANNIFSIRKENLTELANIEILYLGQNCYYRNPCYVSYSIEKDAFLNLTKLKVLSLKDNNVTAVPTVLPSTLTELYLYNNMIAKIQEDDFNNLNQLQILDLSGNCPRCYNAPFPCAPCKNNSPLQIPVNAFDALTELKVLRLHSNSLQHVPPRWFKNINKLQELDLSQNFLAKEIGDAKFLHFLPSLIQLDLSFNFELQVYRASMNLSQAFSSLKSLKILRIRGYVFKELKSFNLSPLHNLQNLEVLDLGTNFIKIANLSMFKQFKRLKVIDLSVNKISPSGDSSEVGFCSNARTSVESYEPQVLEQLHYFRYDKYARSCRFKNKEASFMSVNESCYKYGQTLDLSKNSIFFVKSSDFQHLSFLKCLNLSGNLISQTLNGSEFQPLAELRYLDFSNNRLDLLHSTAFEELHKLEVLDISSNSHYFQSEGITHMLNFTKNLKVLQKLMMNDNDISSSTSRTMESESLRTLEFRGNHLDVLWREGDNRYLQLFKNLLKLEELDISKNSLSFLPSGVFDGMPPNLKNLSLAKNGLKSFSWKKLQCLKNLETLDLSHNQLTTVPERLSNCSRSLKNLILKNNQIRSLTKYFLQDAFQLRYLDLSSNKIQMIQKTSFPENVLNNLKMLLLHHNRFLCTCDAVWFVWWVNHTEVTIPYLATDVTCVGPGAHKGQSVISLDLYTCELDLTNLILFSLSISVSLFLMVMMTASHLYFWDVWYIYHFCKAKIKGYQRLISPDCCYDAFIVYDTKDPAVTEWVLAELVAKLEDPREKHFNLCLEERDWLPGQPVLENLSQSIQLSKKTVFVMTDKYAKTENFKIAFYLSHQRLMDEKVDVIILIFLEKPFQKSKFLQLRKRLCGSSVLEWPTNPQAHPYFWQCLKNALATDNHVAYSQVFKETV
Experimental: To analyze the hTLR7 agonistic activity, HEK-Blue hTLR7 cells transfected with secreted embryonic alkaline phosphatase (SEAP) reporter were seeded at 3×10^4 cell/well. […] The SEAP reporter is designed specifically for measuring secreted placental AP (alkaline phosphatase) in conditioned cell culture medium from transfected cells. The HEK-Blue hTLR7 cells served to measure the bioactivity of TLR7 through SEAP upon NF-κB activation following TLR7 stimulation.
(§1) In the SEAP reporter gene assay as described above, water was used as a negative control. […] The dose-response curves were fit with four parameter logistic curves (SigmaPlot, version 9.0). The EC50-values of the test compounds and reference compounds were calculated.

hTLR8 = target: T2, hTLR8 (Homo sapiens, UniProt Q9NR97); experiment: hTLR8 agonistic activity, HEK-Blue hTLR8 SEAP reporter gene assay; details: for EC50: HEK-Blue hTLR8 cells, SEAP reporter, about 16 hours incubation, read-out: TLR8 EC50; for Ratio of TLR8 EC50 and TLR7 EC50: TLR8 EC50 / TLR7 EC50, HEK-Blue reporter cells
T2 construct: expressed in transfected cells; host or cells: HEK-Blue hTLR8 cells
T2 sequence (Q9NR97 27-1041): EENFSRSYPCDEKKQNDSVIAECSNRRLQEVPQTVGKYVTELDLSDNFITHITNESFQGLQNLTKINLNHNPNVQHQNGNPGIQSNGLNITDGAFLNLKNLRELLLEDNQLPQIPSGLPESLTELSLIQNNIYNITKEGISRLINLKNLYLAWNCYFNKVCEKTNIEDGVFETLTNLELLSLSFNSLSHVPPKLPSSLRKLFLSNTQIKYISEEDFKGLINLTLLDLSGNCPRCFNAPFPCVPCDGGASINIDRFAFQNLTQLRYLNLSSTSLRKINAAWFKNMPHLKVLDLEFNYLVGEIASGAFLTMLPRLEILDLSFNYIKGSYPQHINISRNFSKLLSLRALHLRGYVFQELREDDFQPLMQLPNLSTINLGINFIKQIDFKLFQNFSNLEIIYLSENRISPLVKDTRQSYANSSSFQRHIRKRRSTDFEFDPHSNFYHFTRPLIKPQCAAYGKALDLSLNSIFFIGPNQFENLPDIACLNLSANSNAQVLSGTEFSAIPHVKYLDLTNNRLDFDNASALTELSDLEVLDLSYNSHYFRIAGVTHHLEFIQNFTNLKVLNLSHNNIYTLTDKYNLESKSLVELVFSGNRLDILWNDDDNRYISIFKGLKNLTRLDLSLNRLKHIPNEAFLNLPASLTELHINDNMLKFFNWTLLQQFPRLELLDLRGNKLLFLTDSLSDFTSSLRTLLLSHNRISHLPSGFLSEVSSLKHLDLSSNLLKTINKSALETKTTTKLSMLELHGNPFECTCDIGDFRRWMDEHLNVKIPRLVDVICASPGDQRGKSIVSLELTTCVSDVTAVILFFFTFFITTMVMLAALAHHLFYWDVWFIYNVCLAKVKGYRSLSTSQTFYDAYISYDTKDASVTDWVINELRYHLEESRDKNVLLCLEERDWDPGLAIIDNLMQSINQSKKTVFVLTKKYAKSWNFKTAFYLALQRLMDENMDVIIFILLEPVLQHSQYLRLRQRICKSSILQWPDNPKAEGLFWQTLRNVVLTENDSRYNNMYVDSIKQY
Experimental: To analyze the hTLR8 agonistic activity, HEK-Blue hTLR8 cells transfected with SEAP reporter were seeded at 3×10^4 cell/well. […] The HEK-Blue hTLR8 cells served to measure the bioactivity of TLR8 through the SEAP upon NF-κB activation following TLR8 stimulation.
as §1

human PBMCs [1] = experiment: Ex vivo cytokine profile: IL-6 induction from human PBMCs; details: human PBMCs stimulated 24 h, normalized to baseline; FIGS. 1A-C
Experimental: (§2) Cryopreserved human PBMCs from 4 normal adult volunteers were purchased from EPBMC® (IMMUNOSPOT®). The PBMCs were thawed at 37° C. for 10 minutes and centrifuged at 300×g at room temperature for 5 minutes.
The test compounds and reference compounds were respectively dissolved in DMSO and subsequently 25-fold diluted with PBS to make stock solutions at a concentration of 0.1 mM. […] Approximately 1×10^3 PBMCs were added to each well of 96-well plates and stimulated with 0, 20 or 1000 nM of test compounds for 24 h at 37° C. in a 5% CO2 humidified incubator. The culture supernatant was stocked at −20° C. for analysis of TLR7- and TLR8-mediated cytokine induction. PROCARTAPLEX™ Immunoassay (Invitrogen) was performed to quantify human IL-6, IL-12p70, IP-10 in the culture supernatant according to the manufacturer's instructions. Briefly, the culture supernatant samples were thawed on ice and transferred to a microtiter plate. Magnetic bead-coupled antibodies specific to the target cytokines were added to the samples for analyte capturing. The immobilized target cytokine was specifically detected by biotin-conjugated antibodies and then labelled with streptavidin-Phycoerythrin (PE). The PE-labelled magnetic beads were detected and identified by LUMINEX™ 200™ analyzer. Data acquisition, processing and analysis was conducted by using XPONENT™ 3.1 software. The target cytokines were normalized to their baseline cytokine levels and presented as relative cytokines.

human PBMCs [2] = experiment: Ex vivo cytokine profile: IL-12p70 induction from human PBMCs; details: human PBMCs stimulated 24 h, normalized to baseline; FIGS. 2A-C
Experimental: (§3) Three test compounds (Compound Nos. 2, 9, 10) were used to evaluate the effect on cytokine induction.
as §2, with “minutes. The pelleted PBMCs were transferred to RPMI-1640 medium containing 10% FBS, 1% PSA and incubated at 37° C. with 5% CO2.” for “minutes.”
(§4) The test compounds and reference compounds were respectively dissolved in DMSO and subsequently 25-fold diluted with PBS to make stock solutions at a concentration of 0.1 mM. The preincubated PBMCs were harvested and resuspended in a fresh RPMI-1640 medium containing 10% FBS and 1% PSA. Approximately 1×10^3 PBMCs were added to each well of 96-well plates and stimulated with 0, 20 or 1000 nM of test compounds for 24 h at 37° C. in a 5% CO2 humidified incubator. The culture supernatant was stocked at −20° C. for analysis of TLR7- and TLR8-mediated cytokine induction. PROCARTAPLEX™ Immunoassay (Invitrogen) was performed to quantify human IL-6, IL-12p70, IP-10 in the culture supernatant according to the manufacturer's instructions. Briefly, the culture supernatant samples were thawed on ice and transferred to a microtiter plate. Magnetic bead-coupled antibodies specific to the target cytokines were added to the samples for analyte capturing. The immobilized target cytokine was specifically detected by biotin-conjugated antibodies and then labelled with streptavidin-Phycoerythrin (PE). The PE-labelled magnetic beads were detected and identified by LUMINEX™ 200™ analyzer. Data acquisition, processing and analysis was conducted by using XPONENT™ 3.1 software. The target cytokines were normalized to their baseline cytokine levels and presented as relative cytokines.

human PBMCs [3] = experiment: Ex vivo cytokine profile: IP-10 induction from human PBMCs; details: human PBMCs stimulated 24 h, normalized to baseline; FIGS. 3A-C
Experimental: as §3
as §2, with “minutes. The pelleted PBMCs were transferred to RPMI-1640 medium containing 10% FBS, 1% PSA and incubated at 37° C. with 5% CO2.” for “minutes.”
as §4

| Compound | EC50 (hTLR7) | EC50 (hTLR8) | Ratio of TLR8 EC50 and TLR7 EC50 (hTLR8) | TLR7 and TLR8 dual agonistic activity (in words) (hTLR7; HEK-Blue hTLR7 and hTLR8 reporter cells, summary of Table 1) | relative IL-6 induction (human PBMCs [1]) | relative IL-12p70 induction (human PBMCs [2]) | relative IP-10 induction (human PBMCs [3]) |
| --- | --- | --- | --- | --- | --- | --- | --- |
| CCCc1nc2c(N)nc3ccccc3c2n1CC(C)(C)O [Compound 1, 1-(4-amino-2-propyl-1H-imidazo[4,5-c]quinolin-1-yl)-2-methylpropan-2-ol] | 237 ± 7.4 nM | 5299 ± 14.4 nM | 22.36 | – | – | – | – |
| CCCCCc1nc2c(N)nc3ccccc3c2n1CC(C)(C)O [Compound 2, 1-(4-amino-2-pentyl-1H-imidazo[4,5-c]quinolin-1-yl)-2-methylpropan-2-ol] | 67.1 ± 8.3 nM | 267 ± 13.5 nM | 3.98 | the most potent TLR7/8 dual agonist | low IL-6 induction activity | high IL-12p70 induction activity | high IP-10 induction activity |
| CC(C)(O)Cn1c(CCCC(F)(F)F)nc2c(N)nc3ccccc3c21 [Compound 9, 1-(4-amino-2-(4,4,4-trifluorobutyl)-1H-imidazo[4,5-c]quinolin-1-yl)-2-methylpropan-2-ol] | 129 ± 10.9 nM | 965 ± 14.7 nM | 7.49 | – | low IL-6 induction activity | high IL-12p70 induction activity | high IP-10 induction activity |
| CC(C)(O)Cn1c(CCCCC(F)(F)F)nc2c(N)nc3ccccc3c21 [Compound 10, 1-(4-amino-2-(5,5,5-trifluoropentyl)-1H-imidazo[4,5-c]quinolin-1-yl)-2-methylpropan-2-ol] | 543 ± 29.4 nM | 4746 ± 20.5 nM | 8.74 | – | low IL-6 induction activity | high IL-12p70 induction activity | high IP-10 induction activity |
| CCCN(CCC)C(=O)C1=Cc2ccc(-c3ccc(C(=O)N4CCCC4)cc3)cc2N=C(N)C1 [Ref. 3, VTX2337, reference compound] | – | – | – | – | low IL-6 induction activity | – | – |
